# Laboratory results taken from ChEMBL document CHEMBL2086334, “Fluorogenic assay of alkaline phosphatase activity based on the modulation of excited-state intramolecular proton transfer” (Bioorg Med Chem Lett, 2012).
# Active and inactive are the calls of the source. No cut-off for these calls is given here.
# How the values were obtained:
# [1] = Inhibition of alkaline phosphatase
# [2] = Activity of alkaline phosphatase assessed as compound hydrolysis at 20 uM assessed as increase in fluorescence intensity every 1 min for 10 mins by fluorescence spectrophotometry relative to control
# [3] = Activity of alkaline phosphatase assessed as compound hydrolysis assessed as increase in fluorescence intensity measured every 30 secs for 10 mins by Lineweaver-Burk plot analysis
# [4] = Activity of levamisole-pretreated alkaline phosphatase assessed as compound hydrolysis at 20 uM measured every 0.5 mins for 10 mins by fluorescence spectrophotometry
# [5] = Activity of alkaline phosphatase assessed as compound hydrolysis at 20 uM at 0.1 to 50 nM enzyme concentration measured every 1 min for 10 mins by fluorescence spectrophotometry
IC50 [1],fold change (FC) [2],Km [3],kcat [3],Activity [4],Activity [5],Structure (SMILES)
13.3 µM,–,–,–,–,–,c1ccc([C@H]2CN3CCSC3=N2)cc1 [LEVAMISOLE]
–,455,1.9 µM,0.09 s⁻¹,inactive,Active,O=P(O)(O)Oc1ccccc1-c1nc(-c2ccccc2)cs1
